Here are results for twelve compounds from ChEMBL document CHEMBL3044658, “Synthesis and analgesic activity of new 1,3,4-oxadiazoles and 1,2,4-triazoles” (2011).

Common to all, as to format: functional
In assay [1] the test system is Mus musculus. In words: Analgesic activity in Mus musculus NMRI (mouse) assessed as inhibition of late phase of formalin-induced nociception at 30 umol/kg, ip administered 30 min before formalin injection relative to control.
Assay [2] has as its system Mus musculus. In words: Analgesic activity in Mus musculus NMRI (mouse) assessed as inhibition of late phase of formalin-induced nociception at 30 umol/kg, ip administered 30 min before formalin injection relative to mefenamic acid.
Assay [3] has as its system Mus musculus. As to the kind of experiment: Analgesic activity in Mus musculus NMRI (mouse) assessed as inhibition of early phase of formalin-induced nociception at 30 umol/kg, ip administered 30 min before formalin injection relative to control.

What is called inhibition in vivo is the share of the control response that was lost under treatment. Turning to `Nc1nnc(-c2ccccc2S(=O)(=O)c2ccccc2)o1`, the inhibition in vivo at 30 µmol/kg in the assay on Mus musculus [1] is 68.3%; with Mus musculus [3], 40.5%. In the assay with Mus musculus [2], the Ratio is on record as 0.91.
With `Nc1nnc(-c2ccccc2Sc2ccccc2Cl)o1`, the inhibition in vivo at 30 µmol/kg in the assay on Mus musculus [1] is 67.1%; with Mus musculus [3], 26.7%. The Ratio in the assay on Mus musculus [2] is on record as 0.89.
Taken in the same sequence, the figures for `S=c1[nH]nc(-c2ccccc2Sc2ccccc2)[nH]1` were 79.6%, 49.4% and 1.06.
Taken in the same sequence, the figures for `[O-][S+](c1ccccc1)c1ccccc1-c1n[nH]c(=S)[nH]1` (stereo not given) were 63.3%, 31.7% and 0.85.
Taken in the same sequence, the figures for `O=S(=O)(c1ccccc1)c1ccccc1-c1n[nH]c(=S)[nH]1` were 64.9%, 31.2% and 0.87.
As for `S=c1[nH]nc(-c2ccccc2Sc2ccccc2)o1`, the figures for the inhibition in vivo at 30 µmol/kg in the assay on Mus musculus [1] and in the assay with Mus musculus [3] were 71.3% and 13.1%, respectively. Further, the Ratio in the assay on Mus musculus [2] came out at 0.95.
Taken in the same sequence, the figures for `[O-][S+](c1ccccc1)c1ccccc1-c1n[nH]c(=S)o1` (stereo not given) were 86.1%, 40.9% and 1.15.
Taken in the same sequence, the figures for `O=S(=O)(c1ccccc1)c1ccccc1-c1n[nH]c(=S)o1` were 58%, 41.9% and 0.77.
As to `S=c1[nH]nc(-c2ccccc2Sc2ccccc2Cl)o1`, the inhibition in vivo at 30 µmol/kg in the assay with Mus musculus [1] was 80.5%; in the assay on Mus musculus [3], 16.8%. For the same compound, the Ratio in the assay on Mus musculus [2] stood at 1.06.
The like results for `Nc1nnc(-c2ccccc2Sc2ccccc2)o1` were, in that order, 63.7%, 16.6% and 0.85.
Regarding `Nc1nnc(-c2ccccc2[S+]([O-])c2ccccc2)o1` (stereo not given), the inhibition in vivo at 30 µmol/kg in the assay on Mus musculus [1] was found to be 79.9%; in the assay on Mus musculus [3] it was 29.4%. Further, the Ratio in the assay with Mus musculus [2] was determined as 1.07.
In the case of `Cc1cccc(Nc2ccccc2C(=O)O)c1C` [MEFENAMIC ACID], the inhibition in vivo at 30 µmol/kg with Mus musculus [1] came out at 74.9%; with Mus musculus [3] it was 24.1%.
